Experimental data as given in ChEMBL document CHEMBL5236631, “Design, synthesis and biological evaluation of novel 3,4-dihydro-2H-[1,4]oxazino [2,3-f]quinazolin derivatives as EGFR-TKIs” (Bioorg Med Chem Lett, 2023).

Experiments:
NCI-H1975 = experiment: Antiproliferative activity against human NCI-H1975 cells harboring T790M mutation assessed as inhibition of cell growth; assay type: functional, cell-based
[1] = Cytotoxicity against human 16HBE14o- cells assessed as inhibition of cell growth by MTT assay; assay type: toxicity, cell-based
NCI-H1563 = experiment: Antiproliferative activity against human NCI-H1563 cells assessed as inhibition of cell growth; assay type: functional, cell-based
[2] = target: Epidermal growth factor receptor (Homo sapiens, UniProt P00533); experiment: Inhibition of wild type EGFR (unknown origin) autophosphorylation by Kinase-Glo luminescent assay
Epidermal growth factor receptor, sequence (P00533 whole entry): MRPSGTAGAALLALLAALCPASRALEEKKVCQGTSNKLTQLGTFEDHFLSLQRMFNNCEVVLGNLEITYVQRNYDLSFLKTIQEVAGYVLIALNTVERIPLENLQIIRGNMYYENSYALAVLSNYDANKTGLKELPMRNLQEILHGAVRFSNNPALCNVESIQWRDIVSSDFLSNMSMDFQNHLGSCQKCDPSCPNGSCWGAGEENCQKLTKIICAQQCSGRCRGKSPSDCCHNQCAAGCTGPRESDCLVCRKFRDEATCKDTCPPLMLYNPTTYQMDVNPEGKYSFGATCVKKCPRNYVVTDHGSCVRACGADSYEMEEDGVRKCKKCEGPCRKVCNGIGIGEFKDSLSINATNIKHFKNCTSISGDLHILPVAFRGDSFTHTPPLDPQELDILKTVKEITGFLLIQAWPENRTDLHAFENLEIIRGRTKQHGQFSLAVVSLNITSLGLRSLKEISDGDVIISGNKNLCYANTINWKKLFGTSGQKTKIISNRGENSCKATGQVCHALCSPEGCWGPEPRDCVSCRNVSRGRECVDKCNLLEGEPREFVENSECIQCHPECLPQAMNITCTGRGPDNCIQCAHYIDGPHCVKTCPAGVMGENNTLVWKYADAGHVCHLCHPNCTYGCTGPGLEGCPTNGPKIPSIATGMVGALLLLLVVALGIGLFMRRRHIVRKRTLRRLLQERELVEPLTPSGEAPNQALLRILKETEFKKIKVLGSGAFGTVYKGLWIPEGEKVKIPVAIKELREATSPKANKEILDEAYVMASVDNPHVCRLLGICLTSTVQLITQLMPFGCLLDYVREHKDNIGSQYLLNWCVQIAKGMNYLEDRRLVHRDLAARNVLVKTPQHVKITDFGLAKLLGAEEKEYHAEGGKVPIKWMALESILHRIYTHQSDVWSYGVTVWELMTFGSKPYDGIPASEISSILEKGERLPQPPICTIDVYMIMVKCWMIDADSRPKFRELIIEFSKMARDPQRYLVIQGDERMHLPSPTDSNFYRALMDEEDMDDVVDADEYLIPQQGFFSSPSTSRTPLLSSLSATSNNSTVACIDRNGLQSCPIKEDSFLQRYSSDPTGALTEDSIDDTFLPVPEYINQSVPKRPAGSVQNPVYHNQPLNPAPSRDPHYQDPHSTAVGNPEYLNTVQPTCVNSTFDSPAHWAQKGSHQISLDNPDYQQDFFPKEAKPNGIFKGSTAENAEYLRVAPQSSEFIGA

Structure (SMILES) | IC50 (NCI-H1975) | IC50 (NCI-H1563) | IC50 [2] | CC50 [1]
CC(=O)N1CCOc2c1ccc1ncnc(Nc3ccc(F)c(Cl)c3)c21 | > 40 µM | > 40 µM | 0.0472 µM | –
CCC(=O)N1CCOc2c1ccc1ncnc(Nc3ccc(F)c(Cl)c3)c21 | > 40 µM | > 40 µM | 0.0706 µM | –
CCC(=O)N1CCOc2c1ccc1ncnc(Nc3cccc(C(F)(F)F)c3)c21 | > 40 µM | > 40 µM | 0.838 µM | –
CC(=O)N1CCOc2c1ccc1ncnc(Nc3cccc(C(F)(F)F)c3)c21 | > 40 µM | > 40 µM | 0.534 µM | –
CC(=O)N1CCOc2c1ccc1ncnc(Nc3cccc(Br)c3)c21 | > 40 µM | > 40 µM | 0.0456 µM | 1.4 µM
COCCOc1cc2ncnc(Nc3cccc(Cl)c3)c2c2c1OC(COC)CO2 (stereo not given) | – | – | 0.0103 µM | –

Second part, led by results:

IC50 (NCI-H1975) | IC50 (NCI-H1563) | IC50 [2] | Structure (SMILES) | CC50 [1]
3.6 µM | 24.8 µM | 0.0703 µM | CCC(=O)N1CCOc2c1ccc1ncnc(Nc3cccc(Br)c3)c21 | 1.25 µM
4.67 µM | 8.17 µM | – | C#Cc1cccc(Nc2ncnc3cc(OCCOC)c(OCCOC)cc23)c1 [ERLOTINIB] | 1.32 µM
3.25 µM | 10.6 µM | 0.0257 µM | CN1CCN(CCC(=O)N2CCOc3c2ccc2ncnc(Nc4ccc(F)c(Cl)c4)c32)CC1 | 1.24 µM
4.16 µM | 12.5 µM | 0.0407 µM | CN1CCN(CCC(=O)N2CCOc3c2ccc2ncnc(Nc4cccc(Br)c4)c32)CC1 | 1.35 µM
4.18 µM | > 40 µM | 0.938 µM | FC(F)(F)c1cccc(Nc2ncnc3ccc4c(c23)OCCN4)c1 | –
4.37 µM | 21.2 µM | 0.148 µM | CN1CCN(CCC(=O)N2CCOc3c2ccc2ncnc(Nc4cccc(C(F)(F)F)c4)c32)CC1 | –
1.6 µM | < 1.25 µM | 0.0873 µM | Fc1ccc(Nc2ncnc3ccc4c(c23)OCCN4)cc1Cl | 0.13 µM
15.6 µM | < 1.25 µM | 0.12 µM | Brc1cccc(Nc2ncnc3ccc4c(c23)OCCN4)c1 | –
